Assay results published in ChEMBL document CHEMBL1833882, “Preparation and antibacterial evaluation of decarboxylated fluoroquinolones” (2011).
Values after ≈ are worked out from the molar mass of the structure shown.

How the values were obtained:
Type in all cases: functional
[1] = tested on: Pseudomonas aeruginosa; experiment: Antibacterial activity against Pseudomonas aeruginosa PAO1 harboring oprM deltamexAB after 18 hrs by broth dilution method; settings: PAO1, 18 h
[2] = tested on: Stenotrophomonas maltophilia; experiment: Antibacterial activity against Stenotrophomonas maltophilia ATCC 13637 after 18 hrs by broth dilution method; settings: ATCC 13637, 18 h
[3] = tested on: Escherichia coli; experiment: Antibacterial activity against Escherichia coli 700 expressing TolC after 18 hrs by broth dilution method; settings: Escherichia coli, 700, 18 h
[4] = tested on: Escherichia coli; experiment: Antibacterial activity against Escherichia coli ATCC 29425 after 16 to 18 hrs by agar dilution method
[5] = tested on: Staphylococcus aureus; experiment: Antibacterial activity against Staphylococcus aureus ATCC 25923 after 18 hrs by broth dilution method; settings: ATCC 25923, 18 h
[6] = tested on: Escherichia coli; experiment: Antibacterial activity against Escherichia coli ATCC 29425 after 18 hrs by broth dilution method; settings: ATCC 29425, 18 h
[7] = tested on: Enterococcus faecalis; experiment: Antibacterial activity against Enterococcus faecalis ATCC 29212 after 18 hrs by broth dilution method; settings: ATCC 29212, 18 h
[8] = tested on: Bacillus subtilis; experiment: Antibacterial activity against Bacillus subtilis BD54 after 18 hrs by broth dilution method; settings: BD54, 18 h
[9] = tested on: Burkholderia cepacia; experiment: Antibacterial activity against Burkholderia cepacia ATCC 55792 after 18 hrs by broth dilution method; settings: ATCC 55792, 18 h
[10] = tested on: Enterococcus faecalis; experiment: Antibacterial activity against vancomycin-resistant Enterococcus faecalis ATCC 51575 after 18 hrs by broth dilution method; settings: ATCC 51575, 18 h
[11] = tested on: Enterococcus faecalis; experiment: Antibacterial activity against Enterococcus faecalis ATCC 29212 after 16 to 18 hrs by agar dilution method
[12] = tested on: Staphylococcus aureus; experiment: Antibacterial activity against methicillin-resistant Staphylococcus aureus 1094 after 18 hrs by broth dilution method; settings: Staphylococcus aureus, 1094, 18 h
[13] = tested on: Escherichia coli; experiment: Antibacterial activity against TolC deficient Escherichia coli 701 after 18 hrs by broth dilution method; settings: Escherichia coli, 701, 18 h
[14] = tested on: Staphylococcus aureus; experiment: Antibacterial activity against Staphylococcus aureus ATCC 25923 after 16 to 18 hrs by agar dilution method
[15] = tested on: Acinetobacter baumannii; experiment: Antibacterial activity against Acinetobacter baumannii ATCC 19606 after 18 hrs by broth dilution method; settings: ATCC 19606 = CIP 70.34 = JCM 6841, 18 h
[16] = tested on: Pseudomonas aeruginosa; experiment: Antibacterial activity against Pseudomonas aeruginosa PAO1 ATCC BAA-47 after 18 hrs by broth dilution method; settings: PAO1 ATCC BAA-47, 18 h
[17] = tested on: Klebsiella pneumoniae; experiment: Antibacterial activity against Klebsiella pneumoniae ATCC 13882 after 18 hrs by broth dilution method; settings: ATCC 13882, 18 h
[18] = tested on: Bacillus anthracis; experiment: Antibacterial activity against Bacillus anthracis Sterne after 18 hrs by broth dilution method
[19] = tested on: Klebsiella pneumoniae; experiment: Antibacterial activity against Klebsiella pneumoniae ATCC 700603 after 18 hrs by broth dilution method; settings: ATCC 700603, 18 h
[20] = tested on: Burkholderia cepacia; experiment: Antibacterial activity against Burkholderia cepacia ATCC 39277 after 18 hrs by broth dilution method; settings: ATCC 39277, 18 h

SMILES | MIC [1] [µg/mL] | MIC [2] [µg/mL] | MIC [3] [µg/mL] | MIC [4] [µg/mL] | MIC [5] [µg/mL] | MIC [6] [µg/mL] | MIC [7] [µg/mL] | MIC [8] [µg/mL] | MIC [9] [µg/mL] | MIC [10] [µg/mL] | MIC [11] [µg/mL] | MIC [12] [µg/mL] | MIC [13] [µg/mL] | MIC [14] [µg/mL] | MIC [15] [µg/mL] | MIC [16] [µg/mL] | MIC [17] [µg/mL] | MIC [18] [µg/mL] | MIC [19] [µg/mL] | MIC [20] [µg/mL]
CCn1cc(C(=O)O)c(=O)c2cc(F)c(N3CCNCC3)cc21 [NORFLOXACIN] | 0.039 (≈ 0.122 µM) | 1.25 (≈ 3.91 µM) | 0.059 (≈ 0.185 µM) | 0.01 (≈ 0.0313 µM) | 1.25 (≈ 3.91 µM) | 0.12 (≈ 0.376 µM) | 2.5 (≈ 7.83 µM) | 0.625 (≈ 1.96 µM) | 2.5 (≈ 7.83 µM) | 2.5 (≈ 7.83 µM) | 2 (≈ 6.26 µM) | 40 (≈ 125 µM) | 0.039 (≈ 0.122 µM) | 2 (≈ 6.26 µM) | 10 (≈ 31.3 µM) | 1.25 (≈ 3.91 µM) | 0.117 (≈ 0.366 µM) | 0.313 (≈ 0.98 µM) | 0.938 (≈ 2.94 µM) | 1.25 (≈ 3.91 µM)
O=CN1CCN(c2cc3c(cc2F)c(=O)c(C(=O)O)cn3C2CC2)CC1 | ≤ 0.078 | 1.25 (≈ 3.48 µM) | 0.313 (≈ 0.871 µM) | 0.5 (≈ 1.39 µM) | 0.313 (≈ 0.871 µM) | 0.5 (≈ 1.39 µM) | 0.625 (≈ 1.74 µM) | 0.117 (≈ 0.326 µM) | 1.25 (≈ 3.48 µM) | 2.5 (≈ 6.96 µM) | 1 (≈ 2.78 µM) | 40 (≈ 111 µM) | ≤ 0.078 | 0.5 (≈ 1.39 µM) | 2.5 (≈ 6.96 µM) | 10 (≈ 27.8 µM) | 0.156 (≈ 0.434 µM) | 0.235 (≈ 0.654 µM) | 5 (≈ 13.9 µM) | 0.313 (≈ 0.871 µM)
CCn1ccc(=O)c2cc(F)c(N3CCNCC3)cc21 | 40 (≈ 145 µM) | > 80 | 40 (≈ 145 µM) | 64 (≈ 232 µM) | > 80 | 40 (≈ 145 µM) | > 80 | 80 (≈ 291 µM) | > 80 | > 80 | 32 (≈ 116 µM) | > 80 | 5 (≈ 18.2 µM) | > 64 | > 80 | > 80 | 40 (≈ 145 µM) | 80 (≈ 291 µM) | > 80 | > 80
CC1CN(c2c(F)cc3c(=O)c(C(=O)O)cn(C4CC4)c3c2F)CCN1 (stereo not drawn) | 0.039 (≈ 0.107 µM) | 0.039 (≈ 0.107 µM) | ≤ 0.02 | – | 0.235 (≈ 0.647 µM) | – | 0.625 (≈ 1.72 µM) | 0.078 (≈ 0.215 µM) | 0.235 (≈ 0.647 µM) | 0.625 (≈ 1.72 µM) | – | 10 (≈ 27.5 µM) | ≤ 0.02 | – | 0.313 (≈ 0.861 µM) | 1.25 (≈ 3.44 µM) | ≤ 0.02 | 0.078 (≈ 0.215 µM) | 0.313 (≈ 0.861 µM) | 0.078 (≈ 0.215 µM)
O=CN1CCN(c2cc3c(cc2F)c(=O)ccn3C2CC2)CC1 | > 80 | > 80 | > 80 | > 64 | > 80 | > 80 | > 80 | > 80 | > 80 | > 80 | > 64 | > 80 | > 80 | > 64 | > 80 | > 80 | > 80 | > 80 | > 80 | > 80
CC1CN(c2c(F)cc3c(=O)ccn(C4CC4)c3c2F)CCN1 (stereo not drawn) | 40 (≈ 125 µM) | > 80 | > 80 | > 64 | > 80 | > 80 | > 80 | > 80 | > 80 | > 80 | > 64 | > 80 | 15 (≈ 47 µM) | > 64 | > 80 | > 80 | > 80 | 80 (≈ 251 µM) | > 80 | > 80
O=C(O)c1cn(C2CC2)c2cc(N3CCNCC3)c(F)cc2c1=O [CIPROFLOXACIN] | 0.02 (≈ 0.0604 µM) | 0.156 (≈ 0.471 µM) | – | < 0.06 | 0.625 (≈ 1.89 µM) | < 0.02 | 1.25 (≈ 3.77 µM) | 0.156 (≈ 0.471 µM) | 0.625 (≈ 1.89 µM) | 0.625 (≈ 1.89 µM) | 0.5 (≈ 1.51 µM) | 20 (≈ 60.4 µM) | – | 0.5 (≈ 1.51 µM) | 1.25 (≈ 3.77 µM) | 0.313 (≈ 0.945 µM) | 0.039 (≈ 0.118 µM) | – | 0.313 (≈ 0.945 µM) | 0.078 (≈ 0.235 µM)
O=c1ccn(C2CC2)c2cc(N3CCNCC3)c(F)cc12 | 80 (≈ 278 µM) | > 80 | > 80 | > 64 | > 80 | > 80 | > 80 | > 80 | > 80 | > 80 | > 64 | > 80 | > 80 | > 64 | > 80 | > 80 | > 80 | > 80 | > 80 | > 80
CCN1CCN(c2cc3c(cc2F)c(=O)c(C(=O)O)cn3C2CC2)CC1 [ENROFLOXACIN] | 0.078 (≈ 0.217 µM) | 0.098 (≈ 0.273 µM) | 0.049 (≈ 0.136 µM) | < 0.06 | 0.156 (≈ 0.434 µM) | 0.05 (≈ 0.139 µM) | 0.625 (≈ 1.74 µM) | 0.078 (≈ 0.217 µM) | 0.625 (≈ 1.74 µM) | 0.625 (≈ 1.74 µM) | 0.13 (≈ 0.362 µM) | 5 (≈ 13.9 µM) | ≤ 0.01 | 0.13 (≈ 0.362 µM) | 0.235 (≈ 0.654 µM) | 4.4 (≈ 12.2 µM) | 0.098 (≈ 0.273 µM) | 0.078 (≈ 0.217 µM) | 0.625 (≈ 1.74 µM) | 0.098 (≈ 0.273 µM)
CCN1CCN(c2cc3c(cc2F)c(=O)ccn3C2CC2)CC1 | > 80 | > 80 | > 80 | > 64 | > 80 | > 80 | > 80 | > 80 | > 80 | > 80 | > 64 | > 80 | > 80 | > 64 | > 80 | > 80 | > 80 | > 80 | > 80 | > 80
CCn1ccc(=O)c2cc(F)c(N3CCN(C=O)CC3)cc21 | 80 (≈ 264 µM) | > 80 | 40 (≈ 132 µM) | > 64 | > 80 | 40 (≈ 132 µM) | > 80 | > 80 | > 80 | > 80 | > 64 | > 80 | 40 (≈ 132 µM) | > 64 | > 80 | > 80 | > 80 | > 80 | > 80 | > 80
